Assay results published in US5164513A, “Imidazole derivative” (SS Pharmaceutical Co., Ltd., priority 1987, dated 1992).
Values after ≈ are worked out from the molar mass of the structure shown.

Assays:
Assay type in all cases: cell-based
[1] = test system: Bacillus subtilis ATCC 6633; assay: Antimicrobial activity (MIC); details: ATCC6633
[2] = test system: Staphylococcus aureus FDA 209P; assay: Antimicrobial activity (MIC); details: FDA209P
[3] = test system: Staphylococcus aureus Terajima; assay: Antimicrobial activity (MIC)
[4] = test system: Staphylococcus aureus Smith; assay: Antimicrobial activity (MIC)
[5] = test system: Staphylococcus epidermidis ATCC 12228; assay: Antimicrobial activity (MIC); details: ATCC12228
[6] = test system: Sarcina lutea ATCC 9341; assay: Antimicrobial activity (MIC); details: Micrococcus luteus, ATCC9341
[7] = test system: Streptococcus faecalis IFO 12964; assay: Antimicrobial activity (MIC); details: Enterococcus faecalis, IFO12964
[8] = test system: Micrococcus lysodeikticus IFO 3333; assay: Antimicrobial activity (MIC); details: Micrococcus luteus, IFO3333
[9] = test system: Candida albicans NHL 4019; assay: Antimicrobial activity (MIC); details: NHL4019
[10] = test system: Candida albicans Yu-1200; assay: Antimicrobial activity (MIC); details: YU1200
[11] = test system: Saccharomyces cerevisiae ATCC 9763; assay: Antimicrobial activity (MIC); details: ATCC9763
[12] = test system: Saccharomyces ruxii 6507; assay: Antimicrobial activity (MIC)
[13] = test system: Aspergillus niger ATCC 9642; assay: Antimicrobial activity (MIC); details: ATCC9642
[14] = test system: Penicillium chrysogenum ATCC 6010; assay: Antimicrobial activity (MIC); details: ATCC6010
[15] = test system: Trichophyton mentagrophytes QM 248; assay: Antimicrobial activity (MIC); details: QM248
[16] = test system: Trichophyton mentagrophytes IFO 5812; assay: Antimicrobial activity (MIC); details: IFO5812
[17] = test system: Trichophyton tonsurans IFO 5928; assay: Antimicrobial activity (MIC); details: IFO5928
[18] = test system: Trichophyton rubrum NHL J; assay: Antimicrobial activity (MIC)
[19] = test system: Microsporum gypseum IFO 8231; assay: Antimicrobial activity (MIC); details: Nannizzia gypsea, IFO8231
[20] = test system: Microsporum audounii IFO 6074; assay: Antimicrobial activity (MIC); details: IFO6074
[21] = test system: Microsporum cookei IFO 8303; assay: Antimicrobial activity (MIC); details: Paraphyton cookei, IFO8303
[22] = test system: Epidermophyton floccosum IFO 9045; assay: Antimicrobial activity (MIC); details: IFO9045
[23] = test system: Aspergillus oryzae IMF 4014; assay: Antimicrobial activity (MIC); details: IMF4014
[24] = test system: Cladosporium fulvum IAM 5006; assay: Antimicrobial activity (MIC); details: Fulvia fulva, IAM5006
[25] = test system: Fusarium moniliforme IAM 5062; assay: Antimicrobial activity (MIC); details: Fusarium verticillioides, IAM5062
[26] = test system: Helminthosporium sesamum IAM 5012; assay: Antimicrobial activity (MIC); details: IAM5012
[27] = test system: Pyricularia oryzae IAM 5016; assay: microbe, parasite or virus in culture; details: IAM5016
[28] = test system: Debaryomyces kloeckeri IFO 0015; assay: Antimicrobial activity (MIC); details: IFO0015
[29] = test system: Gibberella fujikuroi IAM 8046; assay: Antimicrobial activity (MIC); details: Fusarium fujikuroi, IAM8046

## CCCCCCCCOc1ccccc1C(C)(O)Cn1ccnc1 (stereo not shown) [Compound 8]
[1]
  MIC: 3.12 µg/mL (≈ 9.44 µM)
[2]
  MIC: 3.12 µg/mL (≈ 9.44 µM)
[3]
  MIC: 3.12 µg/mL (≈ 9.44 µM)
[4]
  MIC: 3.12 µg/mL (≈ 9.44 µM)
[5]
  MIC: 0.39 µg/mL (≈ 1.18 µM)
[6]
  MIC: 0.2 µg/mL (≈ 0.605 µM)
[7]
  MIC: 6.25 µg/mL (≈ 18.9 µM)
[8]
  MIC: 1.56 µg/mL (≈ 4.72 µM)
[9]
  MIC: 12.5 µg/mL (≈ 37.8 µM)
[10]
  MIC: 12.5 µg/mL (≈ 37.8 µM)
[11]
  MIC: 0.025 µg/mL (≈ 0.0756 µM)
[12]
  MIC: 0.39 µg/mL (≈ 1.18 µM)
[13]
  MIC: 0.025 µg/mL (≈ 0.0756 µM)
[14]
  MIC: 3.12 µg/mL (≈ 9.44 µM)
[15]
  MIC: 0.006 µg/mL (≈ 0.0182 µM)
[16]
  MIC: < 0.006 µg/mL
[17]
  MIC: < 0.006 µg/mL
[18]
  MIC: < 0.006 µg/mL
[19]
  MIC: 0.006 µg/mL (≈ 0.0182 µM)
[20]
  MIC: < 0.006 µg/mL
[21]
  MIC: 0.012 µg/mL (≈ 0.0363 µM)
[22]
  MIC: 0.1 µg/mL (≈ 0.303 µM)
[23]
  MIC: < 0.006 µg/mL
[24]
  MIC: 0.78 µg/mL (≈ 2.36 µM)
[25]
  MIC: 3.12 µg/mL (≈ 9.44 µM)
[26]
  MIC: < 0.006 µg/mL
[27]
  MIC: < 0.006 µg/mL
[28]
  MIC: 3.12 µg/mL (≈ 9.44 µM)
[29]
  MIC: 0.78 µg/mL (≈ 2.36 µM)

## CCCCCCCCCOc1ccccc1C(C)(O)Cn1ccnc1 (stereo not shown) [Compound 59]
[1]
  MIC: 6.25 µg/mL (≈ 18.1 µM)
[2]
  MIC: 6.25 µg/mL (≈ 18.1 µM)
[3]
  MIC: 6.25 µg/mL (≈ 18.1 µM)
[4]
  MIC: 6.25 µg/mL (≈ 18.1 µM)
[5]
  MIC: 1.56 µg/mL (≈ 4.53 µM)
[6]
  MIC: 0.05 µg/mL (≈ 0.145 µM)
[7]
  MIC: 6.25 µg/mL (≈ 18.1 µM)
[8]
  MIC: 1.56 µg/mL (≈ 4.53 µM)
[9]
  MIC: 12.5 µg/mL (≈ 36.3 µM)
[10]
  MIC: 25 µg/mL (≈ 72.6 µM)
[11]
  MIC: 12.5 µg/mL (≈ 36.3 µM)
[12]
  MIC: 0.78 µg/mL (≈ 2.26 µM)
[13]
  MIC: 0.1 µg/mL (≈ 0.29 µM)
[14]
  MIC: 6.25 µg/mL (≈ 18.1 µM)
[15]
  MIC: < 0.006 µg/mL
[16]
  MIC: < 0.006 µg/mL
[17]
  MIC: < 0.006 µg/mL
[18]
  MIC: < 0.006 µg/mL
[19]
  MIC: < 0.006 µg/mL
[20]
  MIC: < 0.006 µg/mL
[21]
  MIC: 0.1 µg/mL (≈ 0.29 µM)
[22]
  MIC: 0.2 µg/mL (≈ 0.581 µM)
[23]
  MIC: < 0.006 µg/mL
[24]
  MIC: 1.56 µg/mL (≈ 4.53 µM)
[25]
  MIC: 6.25 µg/mL (≈ 18.1 µM)
[26]
  MIC: < 0.006 µg/mL
[27]
  MIC: < 0.006 µg/mL
[28]
  MIC: 12.5 µg/mL (≈ 36.3 µM)
[29]
  MIC: 1.56 µg/mL (≈ 4.53 µM)
